SMILES strings stand for the structures.

Holding throughout (type): cell-based
The test system of one experiment is HT-29. Briefly: Cytotoxic activity, MTS assay, HT-29. The settings on record: Homo sapiens, HT-29, 96 hours. The procedure:
(§1) This study aims to determine the cytotoxic activity of a compound of the invention against a panel of ten human cancer cell lines.
(§2) Paclitaxel (Taxol®, ref. T1912, Sigma) is used as positive control.
(§3) Human tumor cells were plated at 5,000 to 10,000 cells per well, with 24 h incubation time before treatment. Tumor cell lines were incubated for 96 hours with 10 concentrations, in ¼ dilution steps, of compound of the invention (from 3.8×10^−10 to 1.0×10^−4 M) and Paclitaxel (from 3.8×10^−13 to 1.0×10^−7 M). Experiments were repeated three times, each concentration being issued from quadruplicate. Control cells were treated with corresponding vehicle alone. At the end of the treatments, the cytotoxic activity was evaluated by a MTS assay (Baltrop J A et al, Bioorg. Med. Chem. Lett. 1991, 611-4).

Another experiment has as its system HL-60. Briefly: Cytotoxic activity, MTS assay, HL-60. As to conditions: Homo sapiens, HL-60, 96 hours. The procedure: as §1, §2, §3
For another experiment, the system named is U-87 MG. Briefly: Cytotoxic activity, MTS assay, U-87 MG. The settings on record: Homo sapiens, 96 hours. The procedure: as §1, §2, §3
For another experiment, the system named is A375. Briefly: Cytotoxic activity, MTS assay, A375. As to conditions: Homo sapiens, A-375, A375, 96 hours. The procedure: as §1, §2, §3
A further experiment deals with U-937. Briefly: Cytotoxic activity, MTS assay, U-937. The settings on record: Homo sapiens, U-937, 96 hours. The procedure: as §1, §2, §3
In the next experiment the test system is K-562. Briefly: Cytotoxic activity, MTS assay, K-562. The settings on record: Homo sapiens, K562, K-562, 96 hours. As to the method:
as §1, §2, §3

A further experiment has as its system PC-3. Briefly: Cytotoxic activity, MTS assay, PC-3. The settings on record: Homo sapiens, PC-3, 96 hours. The procedure: as §1, §2, §3
The test system of another experiment is PANC-1. Briefly: Cytotoxic activity, MTS assay, PANC-1. As to conditions: Homo sapiens, PANC-1, 96 hours. As to the method:
as §1, §2, §3

The test system of another experiment is HCT 116. Briefly: Cytotoxic activity, MTS assay, HCT 116. As to conditions: Homo sapiens, HCT 116, 96 hours. As to the method:
as §1, §2, §3

For the next experiment, the system named is A2780. Briefly: Cytotoxic activity, MTS assay, A2780. The settings on record: Homo sapiens, A2780, 96 hours. As to the method:
as §1, §2, §3

Take `CC(=O)O[C@H]1C(=O)[C@@]2(C)[C@H]([C@H](OC(=O)c3ccccc3)[C@]3(O)C[C@H](OC(=O)[C@H](O)[C@@H](NC(=O)c4ccccc4)c4ccccc4)C(C)=C1C3(C)C)[C@]1(OC(C)=O)CO[C@@H]1C[C@@H]2O` [Paclitaxel]: the IC50 in the experiment on HT-29 was 8.29 nM; in the experiment with HL-60, 6.65 nM; in the experiment with U-87 MG, over 100 nM; in the experiment with A375, 6.52 nM; with U-937, 5.29 nM; with K-562, 7.6 nM. The IC50 in the experiment with PC-3 was 8.8 nM; in the experiment on PANC-1, over 100 nM; in the experiment on HCT 116, 5.57 nM; in the experiment with A2780, 77 nM.

For the origin of these results see US20090093476A1, “PYRROLO[1,2-A]QUINOXALINE DERIVATIVES AS ADENOSINE A3 RECEPTOR MODULATORS AND USES THEREOF” (FAUST PHARMACEUTICALS, priority 2005, published 2009).
